The record followed here is ChEMBL document CHEMBL1158251, “Determination of oenothein B as the active 5-alpha-reductase-inhibiting principle of the folk medicine Epilobium parviflorum” (J Nat Prod, 1996).

Molecules are shown by their SMILES.

This assay in a line: Inhibition of 5alpha reductase from human prostatic hyperplasia.

In general, IC50 refers to the concentration that inhibits the measured activity by half. Read a high IC50 as a need for much substance. `O=C(O[C@H]1[C@@H]2OC(=O)c3cc(O)c(O)c(O)c3-c3c4cc(c(O)c3O)Oc3c(cc(O)c(O)c3O)C(=O)O[C@H]3C(O)O[C@@H]5COC(=O)c6cc(O)c(O)c(O)c6-c6c(cc(c(O)c6O)Oc6c(cc(O)c(O)c6O)C(=O)O[C@H]1C(O)O[C@@H]2COC4=O)C(=O)O[C@H]5[C@@H]3OC(=O)c1cc(O)c(O)c(O)c1)c1cc(O)c(O)c(O)c1` (some centres not stated) [OENOTHEIN B]: the midpoint of inhibition, the IC50, lay at 22 µM.

`CC(C)(C)NC(=O)[C@H]1CC[C@H]2[C@@H]3CC[C@H]4NC(=O)C=C[C@]4(C)[C@H]3CC[C@]12C` [FINASTERIDE] registered an IC50 of 0.01 µM.
